As a reminder, the pKi is the negative decadic logarithm of the Ki, by convention in mol/L. Low readings indicate a high Ki, high ones a low Ki.

Structures are written as SMILES. pKi: −log10 of the molar value.

This test deals with T1, P2X purinoceptor 7 (Homo sapiens, UniProt Q99572).
T1 sequence (Q99572 whole entry): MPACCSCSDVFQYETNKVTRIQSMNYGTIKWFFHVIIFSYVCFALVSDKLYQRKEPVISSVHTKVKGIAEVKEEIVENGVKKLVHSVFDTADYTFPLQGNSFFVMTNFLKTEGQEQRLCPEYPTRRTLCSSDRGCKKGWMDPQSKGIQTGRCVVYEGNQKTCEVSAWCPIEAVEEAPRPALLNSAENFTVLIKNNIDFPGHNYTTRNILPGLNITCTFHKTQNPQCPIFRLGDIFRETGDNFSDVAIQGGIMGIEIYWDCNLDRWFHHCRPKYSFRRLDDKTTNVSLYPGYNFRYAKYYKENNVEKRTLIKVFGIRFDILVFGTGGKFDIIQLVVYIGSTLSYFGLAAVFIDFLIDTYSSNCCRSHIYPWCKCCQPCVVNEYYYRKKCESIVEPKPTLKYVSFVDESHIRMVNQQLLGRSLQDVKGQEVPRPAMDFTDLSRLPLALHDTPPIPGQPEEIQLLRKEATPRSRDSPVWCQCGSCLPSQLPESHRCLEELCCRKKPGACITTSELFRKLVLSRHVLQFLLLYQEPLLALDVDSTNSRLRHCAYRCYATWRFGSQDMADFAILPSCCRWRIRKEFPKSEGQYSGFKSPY
Description: P2X7 Radioligand Binding. As for the experimental part: human or rat P2X7-1321N1 cells were collected and frozen @−80° C. On the day of the experiment, cell membrane preparations were made according to standard published methods. […] The compound can be prepared as described in the literature. […] The assay was terminated by filtration (GF/B filters pre-soaked with 0.3% PEI) and washed with washing buffer (Tris-HCl 50 mM). The IC50 generated in the binding assay was corrected for tracer concentration and affinity of the tracer to derive at the affinity (K) of the test compounds. […] Data are analyzed and graphed on Graphpad Prism 5.
In turn, `O=C1NCCn2c1nnc2-c1cnccn1` [US10053463, 1] gave a pKi of 7.20.

`NNC(=O)c1ncccn1` [US10053463, 8] gave a pKi of 7.70.

Compound `NNC(=O)c1ccncn1` [US10053463, 9] showed a pKi of 8.00.

The values are drawn from BindingDB's records for patent US10053463 (Janssen Pharmaceutica NV, 2018).
